# Test results taken from US7618975B2, “4-arylamino-quinazolines and analogs as activators of caspases and inducers of apoptosis and the use thereof” (Myriad Pharmaceuticals, Inc., priority 2003, dated 2009).
# Test system: T-47D cells
# Assay: Caspase cascade activation (N-(Ac-DEVD)-N′-ethoxycarbonyl-R110 fluorogenic substrate) in T-47D cells; as to Caspase activity Ratio T-47D (24 hr): test concentration or dose not given here; as to Caspase activity Ratio T-47D (48 hr): test concentration or dose not given here
# Assay type: cell-based, Human
# Settings: T-47D; for Caspase activity Ratio T-47D (48 hr) / Caspase activity Ratio T-47D (24 hr): ratio of net RFU to control; for Ratio T-47D (48 hr): benzohydrazide analogs table
SMILES,Caspase activity Ratio T-47D (48 hr),Caspase activity Ratio T-47D (24 hr),Ratio T-47D (48 hr)
"COc1ccc(N(C)c2nc(Cl)nc3ccccc23)cc1OC [Example 68, (2-Chloro-quinazolin-4-yl)-(3,4-dimethoxy-phenyl)-methyl-amine]",13.1,,
"COc1ccc(N(c2nc(Cl)nc3ccccc23)C2CCCCC2)cc1 [Example 38, (2-Chloro-quinazolin-4-yl)-cyclohexyl-(4-methoxy-phenyl)-amine]",,3.4,
"COc1ccc(N(C)c2nc(NCCN3CCOCC3)nc3ccccc23)cc1 [Example 14, N^4-(4-Methoxy-phenyl)-N^4-methyl-N^2-(2-morpholin-4-yl-ethyl)-quinazoline-2,4-diamine]",12.3,9.7,
"COc1cccc(Nc2nc(Cl)nc3ccccc23)c1OC [Example 29, (2-Chloro-quinazolin-4-yl)-(2,3-dimethoxy-phenyl)-amine]",1.0,,
"Cc1nc(N(C)c2ccc(F)cc2)c2ccccc2n1 [Example 124, (4-Fluoro-phenyl)-(2-methyl-quinazolin-4-yl)-methyl-amine]",,5.2,
"COc1ccc(N(C)c2nc(C)nc3ccc(N)cc23)cc1 [Example 110, (6-Amino-2-methyl-quinazolin-4-yl)-(4-methoxy-phenyl)-methyl-amine]",,8.8,
"COc1ccc(N(C)c2nc(N=[N+]=[N-])nc3ccccc23)cc1 [Example 121, (2-Azido-quinazolin-4-yl)-(4-methoxy-phenyl)-methyl-amine]",,8.8,
"COc1cccc(Nc2nc(Cl)nc3ccccc23)c1 [Example 32, (2-Chloro-quinazolin-4-yl)-(3-methoxy-phenyl)-amine]",1.0,,
"COc1ccc(N(C)c2nc(Cl)nc3cc(Cl)ccc23)cc1 [Example 62, (2,7-Dichloro-quinazolin-4-yl)-(4-methoxy-phenyl)-methyl-amine]",12.7,,
"CCOC(=O)c1nc(N(C)c2ccc(OC)cc2)c2ccccc2n1 [Example 117, Ethyl 4-(N-(4-Methoxy-phenyl)-N-methylamino)quinazoline-2-carboxylate]",,7.4,
"CN(c1ccc([N+](=O)[O-])cc1)c1nc(Cl)nc2ccccc12 [Example 4, (2-Chloro-quinazolin-4-yl)-(4-nitro-phenyl)-methyl-amine]",,7.1,
"Cc1nc(N(C)c2ccc(N)cc2)c2ccccc2n1 [Example 101, (4-Amino-phenyl)-(2-methyl-quinazolin-4-yl)-methyl-amine]",,9.5,
CSc1nc(N(C)NC(=O)c2cccs2)c2ccccc2n1 [N′-methyl-N′-(2-(methylthio)quinazolin-4-yl)thiophene-2-carbohydrazide],,,10.1
COc1ccc(N(C)c2nc(N3CCOCC3)nc3ccccc23)cc1 [Example 15],11.5,5.7,
"COc1cnc(N(C)c2nc(C)nc3ccccc23)cn1 [Example 126, (5-Methoxy-pyrazin-2-yl)-(2-methyl-quinazolin-4-yl)-methyl-amine]",,7.6,
"COc1ccc(N(C)c2nc(CN(C)C)nc3ccccc23)cc1 [Example 77, (2-Dimethylaminomethyl-quinazolin-4-yl)-(4-methoxy-phenyl)-methyl-amine]",12.3,5.7,
"COc1ccc(N(C)c2nc(SC)nc3ccccc23)cc1 [Example 120, (2-Methylthio-quinazolin-4-yl)-(4-methoxy-phenyl)-methyl-amine]",,5.2,
"COc1ccc(N(C)c2nc(N)nc3ccccc23)cn1 [Example 49, N^4-(6-methoxypyridin-3-yl)-N^4-methyl-quinazoline-2,4-diamine]",13.4,7.5,
"COc1cc(OC)c(Nc2nc(C)nc3ccccc23)c(OC)c1 [Example 82, (2-Methyl-quinazolin-4-yl)-(2,4,6-trimethoxy-phenyl)-amine]",,1.0,
"COc1ccc(Nc2nc(Cl)nc3ccccc23)c(OC)c1 [Example 30, (2-Chloro-quinazolin-4-yl)-(2,4-dimethoxy-phenyl)-amine]",1.0,,
"CCCOc1ccc(N(C)c2nc(Cl)nc3ccccc23)cc1 [Example 70, (2-Chloro-quinazolin-4-yl)-(4-propoxy-phenyl)-methyl-amine]",11.3,,
"COc1ccc(N(C)c2nc(C)nc3cccc(OC)c23)cc1 [Example 91, (5-Methoxy-2-methyl-quinazolin-4-yl)-(4-methoxy-phenyl)-methyl-amine]",,8.3,
"COc1ccc(N(C)c2nc(NO)nc3ccccc23)cc1 [Example 10, N^2-Hydroxyl-N^4-(4-methoxy-phenyl)-N^4-methyl-quinazoline-2,4-diamine]",12.8,,
"CCOc1ccc(Nc2nc(Cl)nc3ccccc23)cc1 [Example 94, (2-Chloro-quinazolin-4-yl)-(4-ethoxy-phenyl)-amine]",1.0,,

SMILES,Caspase activity Ratio T-47D (48 hr),Caspase activity Ratio T-47D (24 hr),Ratio T-47D (48 hr)
"COc1ccc(N(C)c2nc(C)nc3ccc(N=[N+]=[N-])cc23)cc1 [Example 111, (6-Azido-2-methyl-quinazolin-4-yl)-(4-methoxy-phenyl)-methyl-amine]",,9.4,
"COc1ccc(N(C)c2nc(N(C)C)nc3ccccc23)cn1 [Example 128, (2-Dimethylamino-quinazolin-4-yl)-(6-methoxy-pyridin-3-yl)-methyl-amine]",,10,
"COc1ccc(CN(C)c2nc(Cl)nc3ccccc23)cc1 [Example 26, (2-Chloro-quinazolin-4-yl)-(4-methoxy-benzyl)-methyl-amine]",15.7,,
"Cc1nc(N(C)c2ccc(OC(F)F)cc2)c2ccccc2n1 [Example 84, (4-Difluoromethoxy-phenyl)-(2-methyl-quinazolin-4-yl)-methyl-amine]",,6.7,
"COc1ccc(N(C)c2nc(N(C)c3ccc(OC)cc3)c3cc(Cl)ccc3n2)cc1 [Example 61, 6-Chloro-N^2N^4-bis-(4-methoxy-phenyl)-N^2,N^4-dimethyl-quinazoline-2,4-diamine]",9.2,,
"COc1cc(OC)c(N(C)c2nc(C)nc3ccccc23)c(OC)c1 [Example 88, (2-Methyl-quinazolin-4-yl)-(2,4,6-trimethoxy-phenyl)-methyl-amine]",,7.6,
"CCc1ccc(Nc2nc(C)nc3ccccc23)cc1 [Example 81, (4-Ethyl-phenyl)-(2-methyl-quinazolin-4-yl)-amine]",,1.9,
"COc1ccc(Nc2nc(Cl)nc3cc(OC)c(OC)cc23)cc1 [Example 21, (2-Chloro-6,7-dimethoxyquinazolin-4-yl)-(4-methoxy-phenyl)-amine]",1.0,1.0,
"COc1ccc(N(C)c2nc(C)nc3ccccc23)nn1 [Example 125, (6-Methoxy-pyridazin-3-yl)-(2-methyl-quinazolin-4-yl)-methyl-amine]",,8.3,
"Cc1nc(N(C)c2c(Br)cc(N)cc2Br)c2ccccc2n1 [Example 103, (4-Amino-2,6-dibromo-phenyl)-(2-methyl-quinazolin-4-yl)-methyl-amine]",,9.3,
"COC(=O)c1ccc(N(C)c2nc(Cl)nc3ccccc23)cc1 [Example 52, (2-Chloro-quinazolin-4-yl)-(4-methylcarboxyphenyl)-methyl-amine]",10.8,,
"COc1ccc(N(C)c2nc(C)nc3nccnc23)cc1 [Example 140, (4-Methoxy-phenyl)-(2-methyl-pteridin-4-yl)-methyl-amine]",,7.0,
"COc1ccc(N(C)c2nc(C)nc3ccccc23)c(F)c1 [Example 99, (2-Fluoro-4-methoxy-phenyl)-(2-methyl-quinazolin-4-yl)-methyl-amine]",,6.9,
[2H]c1c([2H])c(N(C)c2nc(C)nc3ccccc23)c([2H])c([2H])c1OC [Example 108],,4.8,
"COc1ccc(N(C)c2nc(NCCO)nc3ccccc23)cn1 [Example 48, N^2-(2-Hydroxyethyl)-N^4-(6-methoxypyridin-3-yl)-N^4-methyl-quinazoline-2,4-diamine]",12.5,,
CSc1nc(N(C)NC(=O)c2ccc(F)cc2)c2ccccc2n1 [4-fluoro-N′-methyl-N′-(2-(methylthio)quinazolin-4-yl)benzohydrazide],,,13.8
"Cc1nc(Nc2ccncc2)c2ccccc2n1 [Example 135, (2-Methyl-quinazolin-4-yl)-(pyridin-4-yl)-amine]",,1.2,
COc1ccc(C(=O)NN(C)c2nc(C(F)(F)F)nc3ccccc23)cc1 [N′-(2-(trifluoromethyl)quinazolin-4-yl)-4-methoxy-N′-methylbenzohydrazide],,,13.1
CSc1nc(N(C)NC(=O)c2ccc(Cl)cc2)c2ccccc2n1 [4-chloro-N′-methyl-N′-(2-(methylthio)quinazolin-4-yl)benzohydrazide],,,14.4
"CC(C)=CCC/C(C)=C/CNc1nc(N(C)c2ccc(C)cc2)c2ccccc2n1 [Example 16, N^2-(3,7-Dimethyl-octa-2,6-dienyl)-N^4-(4-methyl-phenyl)-N^4-methyl-quinazoline-2,4-diamine]",,7.6,
"COc1ccc(Nc2nc(C)nc3ccccc23)cn1 [Example 95, (2-Methyl-quinazolin-4-yl)-(6-methoxy-pyridin-3-yl)-amine]",,1.0,
"COc1ccc(N(C)c2nc(Cl)nc3cccc(Cl)c23)cc1 [Example 90, (2,5-Dichloro-quinazolin-4-yl)-(4-methoxy-phenyl)-methyl-amine]",,10.6,
"COc1ccc(N(c2nc(Cl)nc3ccccc23)C(C)C)cc1 [Example 37, (2-Chloro-quinazolin-4-yl)-isopropyl-(4-methoxy-phenyl)-amine]",,3.3,
